What all share (format): binding
One experiment addresses PSD-95-PDZ2 (Homo sapiens, UniProt P78352). Nature of the experiment: FP saturation and inhibition, TAMRA-Cnskr2 / PSD-95-PDZ2. Set-up: PDZ2 (155-249); made in house; host or cells: E. coli BL21-DE3 pLysS. Conditions: saturation, TAMRA-Cnskr2 5 nM; read-out: Kd probe / PSD-95-PDZ2. An excerpt: (§1) First we tested a series of 23 fluorescent-labelled C-terminal peptide ligands (Supplementary Table S1) derived from PDZ-interacting proteins in order to find a probe with good activity towards the PSD-95 PDZ domains and no or little activity against nNOS-PDZ (Supplementary Fig. S1). The Cnskr2 probe fulfilled these selectivity criteria and was used to generate saturation curves with PDZ2 and PDZ1-2 of PSD-95 (Fig. 4a). […] Next, fixed concentrations of TAMRA-Cnskr2, PSD-95-PDZ2/1-2, and nNOS-PDZ were applied, corresponding to the conditions at IC50 of the nNOS-PDZ inhibition curve (Fig. 4b) where sensitivity of the assay is greatest. […] Here, we used the Sapk3-peptide as it has the desired high affinity to α1-Syntrophin-PDZ and low affinity to nNOS-PDZ (Supplementary Fig. S1).
(§2) The minor increases in mP at high concentrations, 260-2900 μM, were due to fluorescence artefacts.
(§3) Incubation time was 10–15 minutes (room temperature), and the assay was performed in a 1 × TBS buffer (150 mM NaCl, 10 mM Tris, pH 7.4) using black flat-bottom 384-well plates (Corning Life Sciences, NY) and a Safire2 plate-reader (Tecan, Männedorf, Switzerland). […] TAMRA- and Cy5-probes were measured at excitation/emission values of 530/585 nm (bandwidth = 20 nm) and 635/670 nm (bandwidth = 15 nm), respectively. […]

Another experiment addresses T1, PSD-95-PDZ1-2 (Homo sapiens, UniProt P78352).
T1 construct: PDZ1-2 (61-249); made in house; host or cells: E. coli BL21-DE3 pLysS
Nature of the experiment: FP saturation and inhibition, TAMRA-Cnskr2 / PSD-95-PDZ1-2. Conditions: saturation, TAMRA-Cnskr2 5 nM; read-out: Kd probe / PSD-95-PDZ1-2.
Source text: as §1, §2, §3

The next experiment concerns the target T2, nNOS-PDZ (Homo sapiens, UniProt P29475).
T2 construct: nNOS-PDZ (12–130, human); made in house; host or cells: E. coli
Nature of the experiment: FP saturation, TAMRA-Cnskr2 / nNOS-PDZ. Conditions: TAMRA-Cnskr2 5 nM, read-out: Kd probe / nNOS-PDZ.
Source text: as §1, §2, §3

In article PMC4503980 (Scientific Reports, 2015) one finds Kd data, which are given here for 1 molecule.

Peptide text beside a SMILES is read from it. * marks the point of attachment. 5TAMRA = CN(C)c1ccc2c(c1)Oc1cc(N(C)C)ccc1C21OC(=O)c2cc(C(=O)*)ccc21

T1 sequence (P78352 61-249): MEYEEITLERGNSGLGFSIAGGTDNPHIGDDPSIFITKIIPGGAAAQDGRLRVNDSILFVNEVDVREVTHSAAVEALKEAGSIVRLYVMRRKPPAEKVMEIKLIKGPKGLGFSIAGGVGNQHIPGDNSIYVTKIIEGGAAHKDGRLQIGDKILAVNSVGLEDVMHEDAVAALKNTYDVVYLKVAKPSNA
Chain of PSD-95-PDZ2 (P78352 155-249): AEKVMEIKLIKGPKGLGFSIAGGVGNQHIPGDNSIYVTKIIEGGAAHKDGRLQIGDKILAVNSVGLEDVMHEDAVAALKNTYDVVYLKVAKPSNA
T2 sequence (P29475 12-130): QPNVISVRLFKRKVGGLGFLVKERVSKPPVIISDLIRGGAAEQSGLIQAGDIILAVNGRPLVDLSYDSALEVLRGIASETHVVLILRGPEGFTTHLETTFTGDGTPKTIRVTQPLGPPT

Take `CC[C@H](C)[C@H](NC(=O)[C@H](Cc1ccc(O)cc1)NC(=O)[C@H](CO)NC(=O)[C@H](Cc1c[nH]cn1)NC(=O)[C@@H](NC(=O)[C@H](Cc1c[nH]cn1)NC(=O)CNC(=O)[C@H](CC(N)=O)NC(=O)[C@H](CC(N)=O)NC(=O)c1ccc2c(c1)C(=O)OC21c2ccc(N(C)C)cc2Oc2cc(N(C)C)ccc21)[C@@H](C)O)C(=O)N[C@@H](CCC(=O)O)C(=O)N[C@H](C(=O)N[C@@H](Cc1c[nH]cn1)C(=O)N[C@H](C(=O)O)C(C)C)[C@@H](C)O` [TAMRA-Cnskr2] (5TAMRA-NNGHTHSYIETHV-OH): the Kd on PSD-95-PDZ2 was 0.38 ± 0.03 µM; at PSD-95-PDZ1-2 it was 1.1 ± 0.1 µM; at nNOS-PDZ, greater than 190 µM.
